Experimental data as given in patent US12509460B2 (Skyhawk Therapeutics, Inc., priority 2019, dated 2025).
Like-named read-outs stand apart in the source and are kept apart here.

Legend:
[1] = test system: SMN protein in spinal muscular atrophy (SMA) patient fibroblasts (GM03813, Coriell); assay: SMN protein assay, Mesoscale Discovery (MSD); type: cell-based, human; conditions: read-out: SMN2 protein EC50
In short: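 Absolute SMN levels were quantified by MSD against an SMN protein standard curve (1 μg/ml to 19.5 pg/ml) run on each plate. Samples were lysates of GM03813 patient fibroblasts (7000 cells/well) treated 48 hours with compound doses from 2.5 μM down to 0.6 nM.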

[2] = test system: mHTT protein in GM04724 (CAG 70/20) Huntington's disease patient lymphoblast cells; assay: mHTT protein assay, 2B7-MW1 assay via Mesoscale Discovery (MSD); type: cell-based, human
In short: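 Signal from the 2B7-MW1 antibody pair on MSD, rising with polyQ length and smaller HTT fragments, measured mHTT after 48 h compound exposure (0.6 nM–10 μM) in GM04724 cells. A parallel replicate plate gave CellTiter Glo viability.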

[3] = test system: SMN FL and SMN Δ7 in spinal muscular atrophy (SMA) patient fibroblasts (GM03813, Coriell); assay: Quantitative splicing assay (SMN), qPCR; type: cell-based, human; conditions: Homo sapiens, Fibroblast, 24 h, 24 h, read-out: SMN2 Splicing FL EC50
Experimental: Spinal muscular atrophy (SMA) patient fibroblasts (GM03813, Coriell) are plated in 96-well plates at 50,000 cells/well. […] Treated cells are lysed and cDNA synthesized using the Fast Advanced Cells-to-Ct kit (Thermofisher A35378) according to the manufacturer's instructions. 2 μL of each cDNA are used in qPCR reactions. […] Reactions are run in a Quant Studio 6 qPCR instrument with default settings.

[4] = Quantitative splicing assay (HTT), qPCR; type: cell-based, human; conditions: Homo sapiens, GM04724, 24 h, GM04724 lymphoblasts, read-out: HTT Splicing: E49-50 EC50
In short: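 TaqMan qPCR on cell-lysate cDNA quantifies cryptic-exon inclusion from HTT intron 49. Lymphoblasts plated at 50,000 cells/well had received compound for 24 h, 0.15 nM-2.5 uM range, 0.1% DMSO.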

MDR1 (P-gp) = assay: Blood-brain-barrier (BBB) penetration potential via MDCK-MDR1 permeability assay; conditions: dog; for Papp A→B at 120 min, 5 μM: MDCK-MDR1, pH 7.4, MDCK-MDR1: Papp A-B; for Papp B→A at 120 min, 5 μM: MDCK-MDR1, pH 7.4, MDCK-MDR1: Papp B-A
[5] = test system: MDR1-MDCK cell monolayers; assay: as above
MDR1 = assay: as above; conditions: dog, MDCK-MDR1, pH 7.4, MDCK-MDR1: Efflux
[6] = SMA patient fibroblasts (GM03813), 48 hours
[7] = GM04724 (CAG 70/20) Huntington's disease patient lymphoblasts
[8] = SMA patient fibroblasts (GM03813)
[9] = SMA patient fibroblasts GM03813, 48 hours, MSD
[10] = GM04724 Huntington's disease patient lymphoblasts
[11] = SMA patient fibroblasts GM03813, 24 h, qPCR

SMILES	EC50 [1, 6]	EC50 [2, 7]	EC50 [3, 8]	EC50 [4]	Papp A→B at 120 min, 5 μM (MDR1 (P-gp); A-B)	Papp B→A at 120 min, 5 μM (MDR1 (P-gp); B-A)	MDCK-MDR1: % Recov A-B ([5]; A-B)	MDCK-MDR1: % Recov B-A ([5]; B-A)	efflux ratio at 120 min, 5 μM (MDR1)	EC50 [1, 9]	EC50 [2, 10]	EC50 [3, 11]	EC50 ([4]; qPCR)	Papp A→B at 120 min, 5 μM (MDR1 (P-gp); A-B direction)	Papp B→A at 120 min, 5 μM (MDR1 (P-gp); B-A direction)	MDCK-MDR1: % Recov A-B ([5]; A-B direction)	MDCK-MDR1: % Recov B-A ([5]; B-A direction)	efflux ratio at 120 min, 5 μM (MDR1; efflux ratio)
Cc1nc2cc(O)c(-c3ccc(N(C)[C@@H]4C[C@H]5CC[C@H](N5)[C@@H]4F)nn3)cc2o1 [Compound 117A, 6-(6-(((1S,2S,3R,5R)-2-fluoro-8-azabicyclo[3.2.1]octan-3-yl)(methyl)amino)pyridazin-3-yl)-2-methylbenzo[d]oxazol-5-ol]	16 to 50 nM	16 to 50 nM	101 to 500 nM	51 to 100 nM	6.87 ×10⁻⁶ cm/s	39.9 ×10⁻⁶ cm/s	84%	97%	6									
Cc1nc2cc(-c3ccc(N(C)[C@H]4C[C@@H]5CC[C@@H](N5)[C@H]4F)nn3)c(O)cc2s1 [Compound 115B, 5-(6-(((IR,2R,3S,5S)-2-fluoro-8-azabicyclo[3.2.1]octan-3-yl)(methyl)amino)pyridazin-3-yl)-2-methylbenzo[d]thiazol-6-ol]	0.01 to 15 nM	0.01 to 15 nM	0.01 to 15 nM	0.01 to 15 nM	6.4 ×10⁻⁶ cm/s	42.6 ×10⁻⁶ cm/s	71%	88%	7									
CN(c1ccc(-c2cc(F)c(-c3ccn(C)c(=O)c3)cc2O)nn1)[C@@H]1C[C@H]2CC[C@H](N2)[C@@H]1F [Compound 1A, 4-(2-fluoro-4-(6-(((1S,2S,3R,5R)-2-fluoro-8-azabicyclo[3.2.1]octan-3-yl)(methyl)amino)pyridazin-3-yl)-5-hydroxyphenyl)-1-methylpyridin-2(1H)-one]										0.01 to 15 nM	0.01 to 15 nM	0.01 to 15 nM	0.01 to 15 nM	0.61 ×10⁻⁶ cm/s	49.3 ×10⁻⁶ cm/s	83%	88%	81
CN(c1ccc(-c2cc3cccnc3cc2O)nn1)[C@H]1C[C@@H]2CC[C@@H](N2)[C@H]1F [Compound 74B, 6-(6-(((1R,2R,3S,5S)-2-fluoro-8-azabicyclo[3.2.1]octan-3-yl)(methyl)amino)pyridazin-3-yl)quinolin-7-ol]										0.01 to 15 nM	0.01 to 15 nM	16 to 50 nM	51 to 100 nM	3 ×10⁻⁶ cm/s	56 ×10⁻⁶ cm/s	77%	90%	19
Cc1ccc(-c2ccc(-c3ccc(N(C)[C@H]4C[C@@H]5CC[C@@H](N5)[C@H]4F)nn3)c(O)c2)nn1 (single isomer, unassigned) [Compound 25B]										0.01 to 15 nM	16 to 50 nM	16 to 50 nM	16 to 50 nM	1.61 ×10⁻⁶ cm/s	46.8 ×10⁻⁶ cm/s	105%	108%	29
CN(c1ccc(-c2ccc(-n3ccnc3)cc2O)nn1)[C@@H]1C[C@H]2CC[C@H](N2)[C@@H]1F [Compound 4A, 2-(6-(((1S,2S,3R,5R)-2-fluoro-8-azabicyclo[3.2.1]octan-3-yl)(methyl)amino)pyridazin-3-yl)-5-(1H-imidazol-1-yl)phenol]										0.01 to 15 nM	16 to 50 nM	51 to 100 nM	16 to 50 nM	2.75 ×10⁻⁶ cm/s	44.8 ×10⁻⁶ cm/s	86%	73%	16
Cc1nc2cc(-c3ccc(N(C)[C@H]4C[C@@H]5CC[C@@H](N5)[C@H]4F)nn3)c(O)cc2c(=O)n1C [Compound 114B, 7-(6-(((1R,2R,3S,5S)-2-fluoro-8-azabicyclo[3.2.1]octan-3-yl)(methyl)amino)pyridazin-3-yl)-6-hydroxy-2,3-dimethylquinazolin-4(3H)-one]	0.01 to 15 nM	0.01 to 15 nM	0.01 to 15 nM	0.01 to 15 nM	0.29 ×10⁻⁶ cm/s	43 ×10⁻⁶ cm/s	88%	94%	150									
Cc1cc(=O)c2cc(O)c(-c3ccc(N(C)[C@@H]4C[C@H]5CC[C@H](N5)[C@@H]4F)nn3)cc2o1 [Compound 49A, 7-(6-(((1S,2S,3R,5R)-2-fluoro-8-azabicyclo[3.2.1]octan-3-yl)(methyl)amino)pyridazin-3-yl)-6-hydroxy-2-methyl-4H-chromen-4-one]										0.01 to 15 nM	16 to 50 nM	0.01 to 15 nM	16 to 50 nM	0.72 ×10⁻⁶ cm/s	30.7 ×10⁻⁶ cm/s	93%	78%	43
CN(c1ccc(-c2cc3ncn(C)c(=O)c3cc2O)nn1)[C@H]1C[C@@H]2CC[C@@H](N2)[C@H]1F [Compound 51B, 7-(6-(((1R,2R,3S,5S)-2-fluoro-8-azabicyclo[3.2.1]octan-3-yl)(methyl)amino)pyridazin-3-yl)-6-hydroxy-3-methylquinazolin-4(3H)-one]										0.01 to 15 nM	0.01 to 15 nM	0.01 to 15 nM	0.01 to 15 nM	0.91 ×10⁻⁶ cm/s	50.3 ×10⁻⁶ cm/s	88%	90%	55
Cc1nc2cc(-c3ccc(N(C)[C@@H]4C[C@H]5CC[C@H](N5)[C@@H]4F)nn3)c(O)cc2s1 [Compound 115A, 5-(6-(((1S,2S,3R,5R)-2-fluoro-8-azabicyclo[3.2.1]octan-3-yl)(methyl)amino)pyridazin-3-yl)-2-methylbenzo[d]thiazol-6-ol]	0.01 to 15 nM	0.01 to 15 nM	16 to 50 nM	16 to 50 nM	4.7 ×10⁻⁶ cm/s	39.3 ×10⁻⁶ cm/s	93%	78%	8									
